Data on 16 molecules can be found in patent US20060079555A1, “Diarylmethylidene piperidine derivatives, preparations thereof and uses thereof” (AstraZeneca AB, priority 2003, published 2006).

The experiment deals with T1, human δ receptor (Homo sapiens, UniProt P41143).
T1 construct: expressed in transfected cells
T1 sequence (P41143 whole entry): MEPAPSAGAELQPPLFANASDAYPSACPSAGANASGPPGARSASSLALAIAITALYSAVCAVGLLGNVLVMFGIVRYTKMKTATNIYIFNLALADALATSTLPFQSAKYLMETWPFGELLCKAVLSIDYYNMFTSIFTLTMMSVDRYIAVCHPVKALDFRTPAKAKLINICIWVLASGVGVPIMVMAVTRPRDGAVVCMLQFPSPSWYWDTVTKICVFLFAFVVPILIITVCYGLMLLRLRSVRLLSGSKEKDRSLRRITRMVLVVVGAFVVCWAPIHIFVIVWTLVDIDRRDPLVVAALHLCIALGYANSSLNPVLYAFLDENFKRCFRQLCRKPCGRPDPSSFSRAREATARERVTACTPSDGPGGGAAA
Kind of experiment: GTP[γ]35S binding functional assay, human δ receptor. The format is biochemical. The note with it: Emax in relation to the standard δ agonist SNC80. How it is done: The agonist activity of the compounds is measured by determining the degree to which the compounds receptor complex activates the binding of GTP to G-proteins to which the receptors are coupled. In the GTP binding assay, GTP[γ]^35S is combined with test compounds and membranes from HEK-293S cells expressing the cloned human opioid receptors or from homogenised rat and mouse brain. Agonists stimulate GTP[γ]^35S binding in these membranes. The EC50 and Emax values of compounds are determined from dose-response curves. Right shifts of the dose response curve by the delta antagonist naltrindole are performed to verify that agonist activity is mediated through delta receptors. The Emax values were determined in relation to the standard δ agonist SNC80, i.e., higher than 100% is a compound that have better efficacy than SNC80.
A general note: Binding of GTPγS marks nucleotide exchange on a G protein.
Molecule `CCN(CC)C(=O)c1ccc(C(=C2CCNCC2)c2cccc(C(=O)Nc3ccccc3)c2)cc1` [Compound 1, 4-[[3-(anilinocarbonyl)phenyl](piperidin-4-ylidene)methyl]-N,N-diethylbenzamide] showed an Emax of 69 to 105%. For `CCN(CC)C(=O)c1ccc(C(=C2CCNCC2)c2cccc(C(=O)NCc3ccccc3)c2)cc1` [Compound 2, 4-[{3-[(benzylamino)carbonyl]phenyl}(piperidin-4-ylidene)methyl]-N,N-diethylbenzamide] the value was 69 to 105%. The result for `CCN(CC)C(=O)c1ccc(C(=C2CCNCC2)c2cccc(C(=O)NCCc3ccccc3)c2)cc1` [Compound 3, 4-[(3-{[(2-phenylethyl)amino]carbonyl}phenyl)(piperidin-4-ylidene)methyl]-N,N-diethylbenzamide] reads 69 to 105%; that for `CCN(CC)C(=O)c1ccc(C(=C2CCNCC2)c2cccc(C(=O)NC3CCCC3)c2)cc1` [Compound 4, 4-[{3-[(cyclopentlamino)carbonyl]phenyl}(piperidin-4-ylidene)methyl]-N,N-diethylbenzamide], 69 to 105%; that for `CCN(CC)C(=O)c1ccc(C(=C2CCNCC2)c2cccc(C(=O)NC3CCCCC3)c2)cc1` [Compound 5], 69 to 105%. The result for `CCN(CC)C(=O)c1ccc(C(=C2CCNCC2)c2cccc(C(=O)NCC3CCCCC3)c2)cc1` [Compound 6] reads 69 to 105%. For the molecule `CCN(CC)C(=O)c1ccc(C(=C2CCNCC2)c2cccc(C(=O)NCc3ccccc3Cl)c2)cc1` [Compound 7, 4-[(3-{[(2-chlorobenzyl)amino]carbonyl}phenyl)(piperidin-4-ylidene)methyl]-N,N-diethylbenzamide], the Emax is 69 to 105%. Consider `CCN(CC)C(=O)c1ccc(C(=C2CCNCC2)c2cccc(C(=O)NCc3ccccc3F)c2)cc1` [Compound 8, 4-[(3-{[(2-fluorobenzyl)amino]carbonyl}phenyl)(piperidin-4-ylidene)methyl]-N,N-diethylbenzamide], for which the Emax lay in the range of 69 to 105%. For `CCN(CC)C(=O)c1ccc(C(=C2CCNCC2)c2cccc(C(=O)N[C@H](C)c3ccc(C)cc3)c2)cc1` [Compound 9, 4-[[3-({[(1R)1-(4-methylphenyl)ethyl]amino}carbonyl)phenyl](piperidin-4-ylidene)methyl]-N,N-diethylbenzamide] the value was 69 to 105%; for `CCN(CC)C(=O)c1ccc(C(=C2CCNCC2)c2cccc(C(=O)Nc3nc(C)cs3)c2)cc1` [Compound 10, 4-[(3-{[(4-methyl-1,3-thiazol-2-yl)amino]carbonyl}phenyl)(piperidin-4-ylidene)methyl]-N,N-diethylbenzamide], 69 to 105%.

As for `CCN(CC)C(=O)c1ccc(C(=C2CCNCC2)c2cccc(C(=O)Nc3ccc(C)nc3C)c2)cc1` [Compound 11], the Emax was 69 to 105%. In turn, `CCN(CC)C(=O)c1ccc(C(=C2CCNCC2)c2cccc(C(=O)NCC(C)C)c2)cc1` [Compound 12, 4-[{3-[(isobutylamino)carbonyl]phenyl}(piperidin-4-ylidene)methyl]-N,N-diethylbenzamide] returned a maximal effect (Emax) of 69 to 105%. In the case of `CCC(CC)NC(=O)c1cccc(C(=C2CCNCC2)c2ccc(C(=O)N(CC)CC)cc2)c1` [Compound 13, 4-[(3{[(1-ethylpropyl)amino]carbonyl}phenyl)(piperidin-4-ylidene)methyl]-N,N-diethylbenzamide], the Emax was in the range of 69 to 105%. For `CCN(CC)C(=O)c1ccc(C(=C2CCNCC2)c2cccc(C(=O)N(C)CCc3ccccc3)c2)cc1` [Compound 14, 4-[(3-{[methyl(2-phenylethyl)amino]carbonyl}phenyl)(piperidin-4-ylidene)methyl]-N,N-diethylbenzamide] the value was 69 to 105%; for `CCN(CC)C(=O)c1ccc(C(=C2CCNCC2)c2cccc(C(=O)N3CCCCC3)c2)cc1` [Compound 15], 69 to 105%; for `CCN(CC)C(=O)c1ccc(C(=C2CCNCC2)c2cccc(C(=O)N3CCCC3)c2)cc1` [Compound 16, N,N-diethyl-4-{piperidin-4-ylidene[3-(pyrrolidin-1-ylcarbonyl)phenyl]methyl}benzamide], 69 to 105%.

The Emax is the greatest response seen or fitted, relative to the assay's reference.
